In assay [1] the target is T1, human M2 receptor (Homo sapiens, UniProt P08172).
T1 construct: expressed in transfected cells; host or cells: CHO-DUKX (CHO-DUKX-M2-GIRK)
T1 sequence (P08172 1-466): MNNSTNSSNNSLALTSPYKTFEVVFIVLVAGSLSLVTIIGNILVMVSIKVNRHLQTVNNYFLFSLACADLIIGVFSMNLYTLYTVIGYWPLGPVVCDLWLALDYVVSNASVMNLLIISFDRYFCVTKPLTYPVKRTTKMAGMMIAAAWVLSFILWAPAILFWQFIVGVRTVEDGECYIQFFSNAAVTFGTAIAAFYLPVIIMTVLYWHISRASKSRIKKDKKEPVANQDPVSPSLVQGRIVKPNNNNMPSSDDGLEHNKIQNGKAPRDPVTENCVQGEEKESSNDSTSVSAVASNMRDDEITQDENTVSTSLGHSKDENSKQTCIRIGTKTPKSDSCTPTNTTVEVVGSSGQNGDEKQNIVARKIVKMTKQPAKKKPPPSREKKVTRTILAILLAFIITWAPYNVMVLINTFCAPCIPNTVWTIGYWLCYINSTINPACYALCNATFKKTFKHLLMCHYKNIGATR
As to the kind of experiment: Functional M2-GIRK1/4 activation test: positive cooperativity (α factor), shift of acetylcholine dose-response curve. The following applies: Allosteric EC50 shift of acetylcholine 8-point dose-response curve; CHO-DUKX-M2-GIRK cells; α>1 = positive cooperativity. Format: cell-based. The source says: The binding of orthosteric agonists (endogenous ligand: acetylcholine) to the M2 receptor leads to receptor activation or a change in conformation of the receptor in the manner of a shift in equilibrium in favour of the active receptor conformation.
The agonist-induced change in conformation of the M2 receptor results in a Gαi protein activation. […] Under physiological conditions, the result is then a selective efflux of potassium from the cell along the electrochemical gradient. […] The extent of hyperpolarization can therefore be regarded as a measure of the activation of the M2 receptor.
The test cell used is a recombinant CHO-DUKX cell line which has been stably transfected with cDNA coding for the human M2 receptor and with cDNA coding for both GIRK1/4 subunits (CHO-DUKX-M2-GIRK). The transmembrane potential, or the relative changes in the transmembrane potential as a function of substance addition or M2 activation, is determined by means of a voltage-sensitive dye (FLIPR Membrane Potential Assay Kit Blue, Molecular Devices #R8034) and the measurement of cell fluorescence using a proprietary fluorescence imaging instrument.
In accordance with the desired test concentrations, the substances were pre-diluted in loading buffer (see above).
The sowing medium consisted of MEM alpha medium (supplemented with 5% PCS, 2% Glutamax, no genticin).
For the particular measurement, the medium was removed and the cells were laden with the volt-age-sensitive dye for at least 6 min at room temperature (30 μl of loading buffer per 384-well). This was followed, in a first measurement, by the determination of the resting transmembrane potential for a period of 5 sec in 1 sec increments. Thereafter, 10 μl in each case of the test substances diluted in loading buffer are added, followed by a second measurement to determine the transmembrane potential for a period of 50 sec in 1 sec increments.
Finally, the cells are admixed with 10 μl of agonist solution (acetylcholine dissolved in loading buffer). In contrast to the EC50 determination of the test substances (see B-1.1), however, this is not done using one acetylcholine concentration; instead, every concentration of the test substance is combined with an acetylcholine 8-point dose-response curve. […] The M2-mediated GIRK1/4 activation or hyperpolarization is then monitored in a third measurement over a period of 60 sec in 1 sec increments. The shift in the acetylcholine dose-response curve in the presence of increasing concentrations of the test substance is analysed and quantified by means of GraphPad PRISM (Allosteric EC50 shift). […] Positive cooperativity is the hallmark of a positive allosteric modulator. […] The greater the magnitude of the α value, the greater the extent of cooperativity between orthosteric and allosteric.

For assay [2], the target named is T1, human M2 receptor. The assay is described as follows: Functional M2-GIRK1/4 activation test: allosteric potency (EC50) and efficiency at EC20 acetylcholine. Format: cell-based. As to conditions: CHO-DUKX-M2-GIRK cells; for EC50: voltage-sensitive dye, acetylcholine at EC20, in some cases mean of two or more determinations; for Emax / Efficiency: boosting of the acetylcholine effect at EC20 acetylcholine concentration. The essentials: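 Positive allosteric modulation measured as boosting of an EC20 acetylcholine response: hyperpolarization via GIRK1/4 in CHO-DUKX-M2-GIRK cells, monitored by membrane-potential dye fluorescence over 60 s after agonist, compound preadded. Hill-function fit gives EC50 and efficiency.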

Broadly, the EC50 is the concentration needed to bring the measured effect to its halfway point. A lower EC50 goes with an effect from little substance. Usually Emax stands for the maximal effect, on the per cent scale that the assay sets.

On to `O=C(NC(C1CC1)C(F)(F)C(F)(F)F)c1cn(-c2c(F)cc(F)cc2F)c2nc(N3C[C@@H](O)[C@H](O)C3)c(F)cc2c1=O` (single isomer, unassigned) [Example 201], for which the “Cooperativity (alpha factor)” value on human M2 receptor [1] was found to be 39. Further, at human M2 receptor [2], it took 1.6 nM to reach a half-maximal effect (EC50) and the Emax was 100%.
In the case of `CC[C@H](NC(=O)c1cn(-c2c(F)cc(F)cc2Cl)c2nc(N3C[C@@H](O)[C@H](O)C3)c(F)cc2c1=O)C(F)(F)F` (single isomer, unassigned) [Example 48], the “Cooperativity (alpha factor)” value at human M2 receptor [1] is recorded as 42. Further, at human M2 receptor [2], the EC50 was determined as 1.8 nM and the Efficiency is 78%.
Take `CCC(C)(C)NC(=O)c1cn(-c2c(F)cc(F)cc2F)c2nc(N3C[C@@H](O)[C@H](O)C3)c(F)cc2c1=O` [Example 89, 7-[(3R,4R)-3,4-dihydroxypyrrolidin-1-yl]-6-fluoro-N-(2-methylbutan-2-yl)-4-oxo-1-(2,4,6-tri-fluorophenyl)-1,4-dihydro-1,8-naphthyridine-3-carboxamide]: the “Cooperativity (alpha factor)” value at human M2 receptor [1] amounted to 44. Also, at human M2 receptor [2], the concentration for a half-maximal effect (EC50) came out at 4.75 nM and the Emax came out at 100%.
In the case of `CC(C)[C@@H](C)NC(=O)c1cn(-c2c(F)cc(F)cc2F)c2nc(N3C[C@@H](O)[C@H](O)C3)c(F)cc2c1=O` [Example 15, 7-[(3R,4R)-3,4-dihydroxypyrrolidin-1-yl]-6-fluoro-N-[(2R)-3-methylbutan-2-yl]-4-oxo-1-(2,4,6-trifluorophenyl)-1,4-dihydro-1,8-naphthyridine-3-carboxamide], the “Cooperativity (alpha factor)” value on human M2 receptor [1] came out at 41. At human M2 receptor [2], this compound returned an EC50 of 9.15 nM and an Emax of 96%.
Turning to `CC(NC(=O)c1cn(-c2c(F)cc(F)cc2F)c2nc(N3CC[C@H](O)C3)c(F)cc2c1=O)C(F)(F)C(F)(F)F` (single isomer, unassigned) [Example 113], at human M2 receptor [1], the “Cooperativity (alpha factor)” value came out at 35. Moreover, on human M2 receptor [2], a half-maximal effect (EC50) was put at 2 nM and the maximal response (Emax) turned out to be 100%.
Taken in the same sequence, the figures for `CC(NC(=O)c1cn(-c2ncc(F)cc2F)c2nc(N3CC(O)C(O)C3)c(F)cc2c1=O)C(F)(F)C(F)(F)F` (single isomer, unassigned) [Example 45] were 62, 8.47 nM and 100%.
Consider `CC(C)(NC(=O)c1cn(-c2c(F)cc(F)cc2Cl)c2nc(N3C[C@@H](O)[C@H](O)C3)c(F)cc2c1=O)C(F)(F)F` [Example 41, 1-(2-chloro-4,6-difluorophenyl)-7-[(3R,4R)-3,4-dihydroxypyrrolidin-1-yl]-6-fluoro-4-oxo-N-(1,1,1-trifluoro-2-methylpropan-2-yl)-1,4-dihydro-1,8-naphthyridine-3-carboxamide], for which the “Cooperativity (alpha factor)” value on human M2 receptor [1] was 37. Also, at human M2 receptor [2], the EC50 was found to be 3.3 nM and the Emax is 100%.
Take `CC(NC(=O)c1cn(-c2c(F)cc(F)cc2F)c2nc(N3C[C@@H](O)[C@H](O)C3)c(F)cc2c1=O)C(F)(F)C(F)(F)F` (single isomer, unassigned) [Example 10]: on human M2 receptor [1], the “Cooperativity (alpha factor)” value was determined as 70.
With `CC(NC(=O)c1cn(-c2c(F)cc(F)cc2F)c2nc(N3C[C@@H](O)[C@H](O)C3)c(F)cc2c1=O)C(F)(F)C(F)(F)F` (single isomer, unassigned) [Example 9], the “Cooperativity (alpha factor)” value on human M2 receptor [1] worked out at 39. This compound returned an Emax on human M2 receptor [2] of 91%.
Regarding `CC[C@H](NC(=O)c1cn(-c2c(F)cc(F)cc2F)c2nc(N3C[C@@H](O)[C@@H](O)C3)c(F)cc2c1=O)C(F)(F)F` [Example 98, 7-[(3R,4S)-3,4-Dihydroxypyrrolidin-1-yl]-6-fluoro-4-oxo-N-[(2S)-1,1,1-trifluorobutan-2-yl]-1-(2,4,6-trifluorophenyl)-1,4-dihydro-1,8-naphthyridine-3-carboxamide], on human M2 receptor [1], the “Cooperativity (alpha factor)” value is listed as 50. Further, on human M2 receptor [2], the EC50 was 14.3 nM and the Emax came to 98%.
Consider `CCC(COC(F)(F)F)NC(=O)c1cn(-c2c(F)cc(F)cc2F)c2nc(N3C[C@@H](O)[C@H](O)C3)c(F)cc2c1=O` (single isomer, unassigned) [Example 32], for which, at human M2 receptor [1], the “Cooperativity (alpha factor)” value came out at 54. On human M2 receptor [2], the EC50 is 4.3 nM and the Efficiency worked out at 100%.
For the compound `CC(C)(NC(=O)c1cn(-c2c(F)cc(F)cc2F)c2nc(N3C[C@@H](O)[C@H](O)C3)c(F)cc2c1=O)C(F)F` [Example 22, N-(1,1-difluoro-2-methylpropan-2-yl)-7-[(3R,4R)-3,4-dihydroxypyrrolidin-1-yl]-6-fluoro-4-oxo-1-(2,4,6-trifluorophenyl)-1,4-dihydro-1,8-naphthyridine-3-carboxamide], the “Cooperativity (alpha factor)” value on human M2 receptor [1] was found to be 42. In addition, at human M2 receptor [2], the EC50 came to 10 nM and the Emax turned out to be 95%.
As to `O=C(NC(C(F)(F)F)C(F)(F)F)c1cn(-c2c(F)cc(F)cc2F)c2nc(N3CC(CO)(CO)C3)c(F)cc2c1=O` [Example 230, 7-[3,3-bis(hydroxymethyl)azetidin-1-yl]-6-fluoro-N-(1,1,1,3,3,3-hexafluoropropan-2-yl)-4-oxo-1-(2,4,6-trifluorophenyl)-1,4-dihydro-1,8-naphthyridine-3-carboxamide], the “Cooperativity (alpha factor)” value on human M2 receptor [1] is reported as 36. For the same compound, at human M2 receptor [2], a half-maximal response (EC50) required 9.7 nM and the Emax was determined as 97%.
`O=C(NC(C1CC1)(C1CC1)C(F)(F)C(F)(F)F)c1cn(-c2c(F)cc(F)cc2F)c2nc(N3CC(CO)(CO)C3)c(F)cc2c1=O` [Example 212, 7-[3,3-bis(hydroxymethyl)azetidin-1-yl]-N-(1,1-dicyclopropyl-2,2,3,3,3-pentafluoropropyl)-6-fluoro-4-oxo-1-(2,4,6-trifluorophenyl)-1,4-dihydro-1,8-naphthyridine-3-carboxamide]: at human M2 receptor [1], the “Cooperativity (alpha factor)” value is reported as 28. Besides, at human M2 receptor [2], it took 2 nM to reach a half-maximal effect (EC50) and the Emax came out at 100%.
For the compound `CC(C)(NC(=O)c1cn(-c2c(F)cc(F)cc2Cl)c2nc(N3C[C@@H](O)[C@H](O)C3)c(F)cc2c1=O)C(F)F` (single isomer, unassigned) [Example 143], the “Cooperativity (alpha factor)” value at human M2 receptor [1] is on record as 40. On human M2 receptor [2], this compound showed an EC50 of 1.5 nM and an Efficiency of 94%.
For the compound `O=C(N[C@@H](C1CC1)C(F)(F)F)c1cn(-c2c(F)cc(F)cc2F)c2nc(N3C[C@@H](O)[C@H](O)C3)c(Cl)cc2c1=O` [Example 37, 6-chloro-N-[(1S)-1-cyclopropyl-2,2,2-trifluoroethyl]-7-[(3R,4R)-3,4-dihydroxypyrrolidin-1-yl]-4-oxo-1-(2,4,6-trifluorophenyl)-1,4-dihydro-1,8-naphthyridine-3-carboxamide], the “Cooperativity (alpha factor)” value on human M2 receptor [1] is 38. In addition, on human M2 receptor [2], it took 6 nM to reach a half-maximal effect (EC50) and the maximal response (Emax) was 100%.
Taken in the same sequence, the figures for `CC(C)(NC(=O)c1cn(-c2c(F)cc(F)cc2F)c2nc(N3C[C@@H](O)[C@H](O)C3)c(F)cc2c1=O)C1CC1` [Example 25, N-(2-cyclopropylpropan-2-yl)-7-[(3R,4R)-3,4-dihydroxypyrrolidin-1-yl]-6-fluoro-4-oxo-1-(2,4,6-trifluorophenyl)-1,4-dihydro-1,8-naphthyridine-3-carboxamide] were 45, 4.05 nM and 95%.
